# Test results published in PubChem BioAssay (NCI).
#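 How tested: cells in 96-well plates exposed to compound for 48 hours at five concentrations. The concentration for full growth arrest is given as TGI.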
# Assays:
# Test in all cases: NCI-60 cell line screen, 48 h
# [1] = system: LXFL 529 NSCLC
# [2] = system: KM12 colon
# [3] = system: UO-31 renal
# [4] = system: 786-0 renal
# [5] = system: TK-10 renal
# [6] = system: SF-295 CNS
# [7] = system: DLD-1 colon
# [8] = system: NCI-H23 lung
# [9] = system: SK-MEL-5 melanoma
# [10] = system: HCT-116 colon
# [11] = system: CAKI-1 renal
# [12] = system: OVCAR-4 ovarian
# [13] = system: OVCAR-3 ovarian
# [14] = system: NCI-H460 lung
# [15] = system: OVCAR-5 ovarian
# [16] = system: A549 NSCLC
# [17] = system: KM20L2 colon
# [18] = system: MALME-3M melanoma
# [19] = system: OVCAR-8 ovarian
# [20] = system: UACC-257 melanoma
# [21] = system: SNB-78 CNS
# [22] = system: NCI-H226 lung
# [23] = system: K-562 leukemia
# [24] = system: SW-620 colon
# [25] = system: HCC-2998 colon
# [26] = system: ACHN renal
# [27] = system: DMS 273 small cell lung
# [28] = system: UACC-62 melanoma
# [29] = system: SNB-75 CNS
# [30] = system: HCT-15 colon
# [31] = system: HOP-62 NSCLC
# [32] = system: HT29 colon
# [33] = system: SK-MEL-2 melanoma
# [34] = system: SF-539 CNS
# [35] = system: RXF 393 renal
# [36] = system: M14 melanoma
# [37] = system: MOLT-4 leukemia
# [38] = system: HL-60(TB) leukemia
# [39] = system: XF 498 CNS
# [40] = system: EKVX NSCLC
# [41] = system: A498 renal
# [42] = system: CCRF-CEM leukemia
# [43] = system: SK-MEL-28 melanoma
# [44] = system: IGROV1 ovarian
# [45] = system: SK-OV-3 ovarian
# [46] = system: RPMI-8226 leukemia
# [47] = system: DMS 114 small cell lung
# [48] = system: U251 CNS
# [49] = system: SF-268 CNS
# [50] = system: HOP-92 NSCLC
# [51] = system: COLO 205 colon
# [52] = system: SNB-19 CNS
# [53] = system: NCI-H522 lung
# [54] = system: M19-MEL melanoma
# [55] = system: SN12C renal
# [56] = system: HOP-18 NSCLC
# [57] = system: SR leukemia
smiles,measurement,setting,value
O=[N+]([O-])c1ccc(/C=C/c2ccc(/C=C/c3ccc([N+](=O)[O-])cc3[N+](=O)[O-])cc2)c([N+](=O)[O-])c1,TGI,[1],> 100 µM
same,TGI,[2],> 100 µM
same,TGI,[3],> 100 µM
same,TGI,[4],> 100 µM
same,TGI,[5],> 100 µM
same,TGI,[6],> 100 µM
same,TGI,[7],> 100 µM
same,TGI,[8],> 100 µM
same,TGI,[9],> 100 µM
same,TGI,[10],> 100 µM
same,TGI,[11],> 100 µM
same,TGI,[12],> 100 µM
same,TGI,[13],> 100 µM
same,TGI,[14],> 100 µM
same,TGI,[15],> 100 µM
same,TGI,[16],> 100 µM
same,TGI,[17],> 100 µM
same,TGI,[18],> 100 µM
same,TGI,[19],> 100 µM
same,TGI,[20],> 100 µM
same,TGI,[21],> 100 µM
same,TGI,[22],> 100 µM
same,TGI,[23],> 100 µM
same,TGI,[24],> 100 µM
same,TGI,[25],> 100 µM
same,TGI,[26],> 100 µM
same,TGI,[27],> 100 µM
same,TGI,[28],> 100 µM
same,TGI,[29],> 100 µM
same,TGI,[30],> 100 µM
same,TGI,[31],> 100 µM
same,TGI,[32],> 100 µM
same,TGI,[33],> 100 µM
same,TGI,[34],> 100 µM
same,TGI,[35],> 100 µM
same,TGI,[36],> 100 µM
same,TGI,[37],> 100 µM
same,TGI,[38],> 100 µM
same,TGI,[39],> 100 µM
same,TGI,[40],> 100 µM
same,TGI,[41],> 100 µM
same,TGI,[42],> 100 µM
same,TGI,[43],> 100 µM
same,TGI,[44],> 100 µM
same,TGI,[45],> 100 µM
same,TGI,[46],> 100 µM
same,TGI,[47],> 100 µM
same,TGI,[48],> 100 µM
Cc1ccccc1NC(=O)C1C(=O)N(c2ccccc2C)C(=O)/C1=N\NC(N)=O (stereo unspecified),TGI,[1],> 100 µM
same,TGI,[2],> 100 µM
same,TGI,[3],> 100 µM
same,TGI,[4],> 100 µM
same,TGI,[5],> 100 µM
same,TGI,[6],> 100 µM
same,TGI,[7],> 100 µM
same,TGI,[8],> 100 µM
same,TGI,[9],> 100 µM
same,TGI,[49],> 100 µM
same,TGI,[10],> 100 µM
same,TGI,[11],> 100 µM
same,TGI,[12],> 100 µM
same,TGI,[13],> 100 µM
same,TGI,[14],> 100 µM
same,TGI,[15],> 100 µM
same,TGI,[16],> 100 µM
same,TGI,[17],> 100 µM
same,TGI,[50],> 100 µM
same,TGI,[18],> 100 µM
same,TGI,[19],> 100 µM
same,TGI,[51],> 100 µM
same,TGI,[20],> 100 µM
same,TGI,[21],> 100 µM
same,TGI,[23],> 100 µM
same,TGI,[24],> 100 µM
same,TGI,[25],> 100 µM
same,TGI,[52],> 100 µM
same,TGI,[26],> 100 µM
same,TGI,[27],> 100 µM
same,TGI,[28],> 100 µM
same,TGI,[29],83.7 µM
same,TGI,[53],> 100 µM
same,TGI,[30],> 100 µM
same,TGI,[31],> 100 µM
same,TGI,[32],> 100 µM
same,TGI,[33],> 100 µM
same,TGI,[34],> 100 µM
same,TGI,[35],> 100 µM
same,TGI,[36],> 100 µM
same,TGI,[37],> 100 µM
same,TGI,[38],> 100 µM
same,TGI,[54],> 100 µM
same,TGI,[40],> 100 µM
same,TGI,[55],> 100 µM
same,TGI,[41],> 100 µM
same,TGI,[42],> 100 µM
same,TGI,[56],> 100 µM
same,TGI,[43],> 100 µM
same,TGI,[44],> 100 µM
same,TGI,[47],> 100 µM
same,TGI,[48],> 100 µM
same,TGI,[57],> 100 µM
